System: p-IRS-1 and p-PI3K/Akt/GSK3β (Ser 9) pathways
Test: Insulin resistance and downstream insulin signaling in APPswe/ind-overexpressing SH-SY5Y cells, immunoblot
Assay type: cell-based, human
Settings: APPswe/ind SH-SY5YIR, Comp. C 10 μM with Os-pep 10 μM
Method: Human neuroblastoma SH-SY5Y cells were seeded (in 6-well culture plates for immunoblotting and in chamber slides for immunofluorescence) in DMEM (Dulbecco’s modified Eagle medium) containing 10% fetal bovine serum (FBS) and 1% antibiotics (penicillin-streptomycin) and incubated at 37 °C in humidified air containing 5% CO2. Once the cells reached 70–80% confluence, the cells were transfected using the pCAX vector containing the APPswe/ind gene using Lipofectamine 3000 (Life Technologies) according to the provider’s protocols. AdipoR1 siRNA (h) (SC-60123) and AMPK siRNA (h) (SC-45312) (Santa Cruz Biotechnology, Inc.) were used at a concentration of 10 μM per transfection and expressed for 72 h according to the manufacturer’s protocol (Santa Cruz Biotechnology, Inc.). A negative siRNA (Ambion, Thermo Fisher Scientific) was used as a control. Seventy-two hours after the transfections, the cells were exposed to Os-pep (10 μM) for 12 h and then subjected to immunoblotting and immunofluorescence analyses.
Human neuroblastoma SH-SY5Y cells were treated with 1 µM of insulin for 48 h to produce intrinsic insulin-resistant human neuroblastoma (SH-SY5YIR) cells. After 48 h, SH-SY5YIR cells were overexpressed with human APPswe/ind and subjected with AdipoR1 siRNA which further exposed to 10 nM insulin, Os-pep (10 µM) or compound C (10 µM) for 12 h, and then cell lysates were collected and proceeded accordingly for immunoblotting and ELISA.

c1cc(-c2cnn3cc(-c4ccc(OCCN5CCCCC5)cc4)cnc23)ccn1 [Comp. C, reference compound]
effect on insulin-sensitizing effect of Os-pep: inhibited the insulin-sensitizing effect of Os-pep

— PMC8042910, “Adiponectin-mimetic novel nonapeptide rescues aberrant neuronal metabolic-associated memory deficits in Alzheimer’s disease” (Molecular Neurodegeneration, 2021)
